Measured values published in patent US20230391729A1, “SUCCINATE SALTS OF N-(3-(4-(3-(DIISOBUTYLAMINO)PROPYL)PIPERAZIN-1-YL)PROPYL)-1H-BENZO[D]IMIDAZOL-2-AMINE, PREPARATION THEREOF AND USE OF THE SAME” (ALZPROTECT, priority 2020, published 2023).

Tests used:
[1] = 7-day stability tests of the salt (XRPD, HPLC purity); format: physicochemical; conditions: for Purity (%) by HPLC after 7-day stability test: 7 days
Procedure: 7-day stability tests were carried out as follows: 15 mg of salt was weighed into x3 2 mL vials. The vials were then placed at 40° C./75% RH, 80° C. and under ambient light; after 1 week, the solids were analysed by XRPD and HPLC purity (method A).

[2] = test system: cortical neurons cultured with microglia; assay: Neuron survival and neurite network (MAP-2) in cortical neurons after Aβ1-42 injury; format: cell-based, rat; conditions: Aβ1-42 injury 72 h, co-administered; 10 nM to 100 nM
Procedure: (§1) Rat cortical neurons cultured with microglia were cultured as described by Callizot et al. in J Neurosci Res. 2013, 91: 706-716 with modifications to include microglial cells. Pregnant female rats (Rats Wistar; Janvier Labs France) of 15 days of gestation were killed, after a deep anesthesia with CO2, by cervical dislocation. Then, fetuses were collected and immediately placed in ice-cold L15 Leibovitz medium with a 2% penicillin (10,000 U/ml) and streptomycin (10 mg/ml) solution (PS) and 1% bovine serum albumin (BSA). Cortexes were treated for 20 min at 37° C. with a trypsin-EDTA solution at a final concentration of 0.05% trypsin and 0.02% EDTA. The dissociation was stopped by addition of Dulbecco's modified Eagle's medium (DMEM) with 4.5 g/liter of glucose, containing DNAse I grade II (final concentration 0.5 mg/ml) and 10% fetal calf serum (FCS). Cells were mechanically dissociated by three forced passages through the tip of a 10-mL pipette. […] Viable cells were counted in a Neubauer cytometer, using the trypan blue exclusion test. […]
(§2) Cortical neurons were intoxicated with A3 solutions (see below) after 11 days of culture. […] This solution was gently agitated for 3 days at 37° C. in the dark and immediately used after being properly diluted in control medium to the concentrations used ([…] of Aβ1-42 preparation containing […] of Aβ oligomers (AβO) measured by WB). […]

[3] = test system: tau, phosphorylated on the sites Thr212 and Ser214 (AT100); assay: Tau phosphorylation (AT100) in cortical neurons after Aβ1-42 injury; format: cell-based, rat; conditions: Aβ1-42 injury 72 h; doses above 1 nM
Procedure: as §1, §2

microglial cells = assay: Microglia activation (OX-41) after Aβ1-42 injury; format: cell-based, rat; conditions: Aβ1-42 injury 72 h; at the investigated doses
Procedure: as §1, §2

N-(3-(4-(3-(diisobutylamino)propyl)piperazin-1-yl)propyl)-1H-benzo[d]imidazol-2-amine sesqui-succinate salt [sesqui-succinate salt Form 1]
XRPD crystallinity or form after 7-day stability tests ([1]; 40° C./75% RH, 80° C. and ambient light): no change to crystallinity or form | Purity (%) by HPLC after 7-day stability test ([1]; 40° C./75% RH): 98.5% | Purity (%) by HPLC after 7-day stability test ([1]; 80° C.): 98.3% | Purity (%) by HPLC after 7-day stability test ([1]; Ambient Light): 98.4% | change in HPLC purity after 7-day stability test ([1]; each stability condition): no change in purity | neurite network (MAP-2 staining) [2]: significantly longer | neuron survival: total number of neurons (MAP-2 staining) [2]: neuroprotective | hyperphosphorylation of Tau (AT100 in MAP-2 neurons) [3]: significantly reduced | activation of microglial cells (OX41 area) (microglial cells): able to decrease the activation of microglial cells
